Earlier results on one molecule are cited in US20040265230A1, “Compositions and methods for diagnosing and treating colon cancers” (priority 2003, published 2004).

Data set [1] concerns lymphoid, myeloid, colon, and prostate cancer cells. The conditions noted are these: prostate xenografts in nude mice.
The next data set has as its system tumor cells. The settings on record: read-out: concentration causing 50% growth inhibition of tumor cells.

Take `CN1CC[C@H](c2c(O)cc(O)c3c(=O)cc(-c4ccccc4Cl)oc23)[C@H](O)C1` [Flavopiridol]: in data set [1], the “inhibition of cancer cells grown in vivo as tumor xenografts” value is given as “inhibits”. For the same molecule, the IC50 with tumor cells was 60 nM.
